In ChEMBL document CHEMBL3228010, “Potential antitumor agents. 29. Quantitative structure-activity relationships for the antileukemic bisquaternary ammonium heterocycles” (J Med Chem, 1979):

Tests used:
[1] = Lipophilic-hydrophilic balance, Rm of the compound by partition chromatography; format: physicochemical
Mus musculus = experiment: Toxicity in ip dosed C3H X DBA2 F1 hybrid mouse […] with mouse L1210 cells on day 0 and dosed once daily on days 1 to 5 measured after 50 days; format: organism-based; conditions: in vivo, 1200 h
L1210 [2] = experiment: Antitumor activity against mouse L1210 cells […] in ip dosed C3H X DBA2 F1 hybrid mouse on day 0 and dosed once daily on days 1 to 5 assessed as increase in life span relative to control; format: functional
L1210 [3] = experiment: Antitumor activity against mouse L1210 cells […] in ip dosed C3H X DBA2 F1 hybrid mouse on day 0 and dosed at LD10 level once daily on days 1 to 5 assessed as increase in life span relative to control; format: functional

| Compound | Rm [1] | LD10 (Mus musculus) | D40 (L1210 [2]) | log(ILSmax) (L1210 [3]) |
| --- | --- | --- | --- | --- |
| CCCCC[n+]1cccc2cc(NC(=O)COc3ccc(C(=O)Nc4ccc5c(ccc[n+]5CCCCC)c4)cc3)ccc21.Cc1ccc(S(=O)(=O)[O-])cc1.Cc1ccc(S(=O)(=O)[O-])cc1 | 0.78 | 150 mg/kg | 100 mg/kg | 1.53 |
| CCC[n+]1cccc2cc(NC(=O)c3ccc(C(=O)Nc4ccc5c(ccc[n+]5CCC)c4)c(N)c3)ccc21.Cc1ccc(S(=O)(=O)[O-])cc1.Cc1ccc(S(=O)(=O)[O-])cc1 | 0.25 | 10 mg/kg | 3.9 mg/kg | 1.92 |
| CCC[n+]1cccc(NC(=O)c2ccc(NC(=O)c3ccc(C(=O)Nc4ccc(C(=O)Nc5ccc[n+](CCC)c5)c(OC)c4)cc3)cc2OC)c1.Cc1ccc(S(=O)(=O)[O-])cc1.Cc1ccc(S(=O)(=O)[O-])cc1 | 0.7 | 37 mg/kg | 22 mg/kg | 1.79 |
| CCCCC[n+]1cccc2cc(NC(=O)c3ccc(C(=O)Nc4ccc5c(ccc[n+]5CCCCC)c4)c(N)c3)ccc21.Cc1ccc(S(=O)(=O)[O-])cc1.Cc1ccc(S(=O)(=O)[O-])cc1 | 0.85 | 16 mg/kg | 15 mg/kg | 1.51 |
| CC[n+]1cccc(NC(=O)c2ccc(NC(=O)c3ccc(C(=O)Nc4ccc(C(=O)Nc5ccc[n+](CC)c5)cc4)c(N)c3)cc2)c1.Cc1ccc(S(=O)(=O)[O-])cc1.Cc1ccc(S(=O)(=O)[O-])cc1 | -0.15 | 14 mg/kg | 2.4 mg/kg | 2.13 |
| CC[n+]1cccc2cc(NC(=O)c3ccc(C(=O)Nc4ccc(NC(=O)c5ccc6c(ccc[n+]6CC)c5)cc4)cc3)ccc21.Cc1ccc(S(=O)(=O)[O-])cc1.Cc1ccc(S(=O)(=O)[O-])cc1 | -0.35 | 50 mg/kg | 35 mg/kg | 1.9 |
| CC[n+]1cc(-c2ccc(NC(=O)c3ccc(Nc4cc[n+](CC)c5ccc(N)cc45)cc3N)cc2)c(N)nc1N.Cc1ccc(S(=O)(=O)[O-])cc1.Cc1ccc(S(=O)(=O)[O-])cc1 | 0.33 | 100 mg/kg | 8.6 mg/kg | 2.28 |
| CC[n+]1ccc(Nc2ccc(NC(=O)c3ccc(Nc4cc[n+](CC)c5ccccc45)cc3N)cc2)cc1.[I-].[I-] | 0.65 | 53 mg/kg | 11.9 mg/kg | 1.95 |
| CCC[n+]1cccc(-c2ccc(NC(=O)c3ccc(C(=O)Nc4ccc(-c5ccc(-c6ccc(-c7ccc[n+](CCC)c7)cc6)cc5)cc4)cc3)cc2)c1.Cc1ccc(S(=O)(=O)[O-])cc1.Cc1ccc(S(=O)(=O)[O-])cc1 | -0.25 | 59 mg/kg | 4 mg/kg | 2.16 |
| CCC[n+]1ccc(Nc2ccc(NC(=O)c3ccc(C(=O)Nc4ccc(Nc5cc[n+](CCC)cc5)cc4)cc3)cc2)cc1.Cc1ccc(S(=O)(=O)[O-])cc1.Cc1ccc(S(=O)(=O)[O-])cc1 | 0.81 | 4.1 mg/kg | 0.6 mg/kg | 1.99 |
| CCC[n+]1ccc(-c2ccc(-c3ccc(-c4ccc(NC(=O)c5ccc(C(=O)Nc6ccc(-c7ccc(-c8ccc(-c9cc[n+](CCC)cc9)cc8)cc7)cc6)cc5)cc4)cc3)cc2)cc1.Cc1ccc(S(=O)(=O)[O-])cc1.Cc1ccc(S(=O)(=O)[O-])cc1 | 0.46 | 10 mg/kg | 4.6 mg/kg | 2.03 |
| C[n+]1cccc(NC(=O)c2ccc(NC(=O)c3ccc(C(=O)Nc4ccc(C(=O)Nc5ccc[n+](C)c5)cc4)cc3)cc2)c1.Cc1ccc(S(=O)(=O)[O-])cc1.Cc1ccc(S(=O)(=O)[O-])cc1 | -0.74 | 56 mg/kg | 5.9 mg/kg | 2.13 |
| CC[n+]1ccc(Nc2ccc(NC(=O)c3ccc(C(=O)Nc4ccc(Nc5cc[n+](CC)c(N)n5)cc4)cc3)cc2)nc1N.Cc1ccc(S(=O)(=O)[O-])cc1.Cc1ccc(S(=O)(=O)[O-])cc1 | -0.3 | 112 mg/kg | 10 mg/kg | 2.06 |
| COCC[n+]1cccc2cc(NC(=O)c3ccc(C(=O)Nc4ccc5c(ccc[n+]5CCOC)c4)cc3)ccc21.Cc1ccc(S(=O)(=O)[O-])cc1.Cc1ccc(S(=O)(=O)[O-])cc1 | 0.4 | 17 mg/kg | 11 mg/kg | 2.04 |
| CCCC[n+]1cccc(NC(=O)c2ccc(NC(=O)/C=C/c3ccc(C(=O)Nc4ccc(C(=O)Nc5ccc[n+](CCCC)c5)cc4)cc3)cc2)c1.Cc1ccc(S(=O)(=O)[O-])cc1.Cc1ccc(S(=O)(=O)[O-])cc1 | 0.4 | 24 mg/kg | 14 mg/kg | 1.72 |
| C[n+]1ccc(Nc2ccc(NC(=O)c3ccc(Nc4cc[n+](C)c5ccccc45)cc3N)cc2)cc1.[I-].[I-] | 0.24 | 29 mg/kg | 1.1 mg/kg | 2.18 |

| Compound | Rm [1] | LD10 (Mus musculus) | D40 (L1210 [2]) | log(ILSmax) (L1210 [3]) |
| --- | --- | --- | --- | --- |
| C[n+]1cc(-c2ccc(NC(=O)c3ccc(C(=O)Nc4ccc(-c5c[n+](C)c(N)nc5N)cc4)cc3)cc2)c(N)nc1N.Cc1ccc(S(=O)(=O)[O-])cc1.Cc1ccc(S(=O)(=O)[O-])cc1 | -0.42 | 12 mg/kg | 1.5 mg/kg | 2.22 |
| CC[n+]1cccc(NC(=O)c2ccc(NC(=O)C34CCC(C(=O)Nc5ccc(C(=O)Nc6ccc[n+](CC)c6)cc5)(CC3)CC4)cc2)c1.Cc1ccc(S(=O)(=O)[O-])cc1.Cc1ccc(S(=O)(=O)[O-])cc1 | 0.59 | 27 mg/kg | 18 mg/kg | 1.65 |
| CC[n+]1cccc(NC(=O)c2ccc(NC(=O)c3cccc(C(=O)Nc4ccc(C(=O)Nc5ccc[n+](CC)c5)cc4)c3)cc2)c1.Cc1ccc(S(=O)(=O)[O-])cc1.Cc1ccc(S(=O)(=O)[O-])cc1 | 0.51 | 12 mg/kg | 12 mg/kg | 1.6 |
| CC[n+]1ccc(Nc2ccc(NC(=O)c3ccc(Nc4cc[n+](CC)c5ccccc45)cc3)cc2N)cc1.[I-].[I-] | 0.56 | 10 mg/kg | 5.1 mg/kg | 1.69 |
| CC[n+]1cc(-c2ccc(NC(=O)/C=C/c3ccc(C(=O)Nc4ccc(-c5c[n+](CC)c(N)nc5N)cc4)cc3)cc2)c(N)nc1N.Cc1ccc(S(=O)(=O)[O-])cc1.Cc1ccc(S(=O)(=O)[O-])cc1 | -0.35 | 27 mg/kg | 5.1 mg/kg | 2.23 |
| CC[n+]1cccc(-c2ccc(NC(=O)c3ccc(C(=O)Nc4ccc(-c5ccc(-c6ccc(-c7ccc[n+](CC)c7)cc6)cc5)cc4)cc3)cc2)c1.Cc1ccc(S(=O)(=O)[O-])cc1.Cc1ccc(S(=O)(=O)[O-])cc1 | -0.44 | 43 mg/kg | 5.6 mg/kg | 2.2 |
| CCC[n+]1cccc2cc(NC(=O)c3ccc(C(=O)Nc4ccc5c(ccc[n+]5CCC)c4)nc3)ccc21.Cc1ccc(S(=O)(=O)[O-])cc1.Cc1ccc(S(=O)(=O)[O-])cc1 | 0.05 | 16 mg/kg | 14 mg/kg | 1.51 |
| CCC[n+]1cccc(-c2ccc(NC(=O)/C=C/c3ccc(C(=O)Nc4ccc(-c5ccc(-c6ccc(-c7ccc[n+](CCC)c7)cc6)cc5)cc4)cc3)cc2)c1.Cc1ccc(S(=O)(=O)[O-])cc1.Cc1ccc(S(=O)(=O)[O-])cc1 | 0.02 | 20 mg/kg | 6.4 mg/kg | 2.2 |
| CCC[n+]1ccc(Nc2ccc(NC(=O)c3ccc(Nc4cc[n+](CCC)c5ccc(N)cc45)cc3)cc2N)cc1.[I-].[I-] | 0.41 | 10 mg/kg | 3.6 mg/kg | 1.95 |
| CC[n+]1cccc(NC(=O)c2ccc(NC(=O)c3ccc(C(=O)Nc4ccc(C(=O)Nc5ccc[n+](CC)c5)c(N)c4)c(N)c3)cc2N)c1.Cc1ccc(S(=O)(=O)[O-])cc1.Cc1ccc(S(=O)(=O)[O-])cc1 | -0.9 | 14 mg/kg | 2.6 mg/kg | 2.29 |
| CCC[n+]1ccc(Nc2ccc(C(=O)Nc3ccc(/C(C)=N/NC(=N)N)cc3)c(N)c2)c2cc(N)ccc21.Cc1ccc(S(=O)(=O)O)cc1.Cc1ccc(S(=O)(=O)[O-])cc1 | 0.07 | 60 mg/kg | 10 mg/kg | 2.2 |
| C[n+]1ccc(Nc2ccc(NC(=O)c3ccc(C(=O)Nc4ccc(C(=O)Nc5ccc[n+](C)c5)cc4)cc3)cc2)cc1.Cc1ccc(S(=O)(=O)[O-])cc1.Cc1ccc(S(=O)(=O)[O-])cc1 | 0.07 | 9 mg/kg | 0.8 mg/kg | 2.03 |
| CCCC[n+]1cccc2cc(NC(=O)c3ccc(C(=O)Nc4ccc5c(ccc[n+]5CCCC)c4)c(N)c3)ccc21.Cc1ccc(S(=O)(=O)[O-])cc1.Cc1ccc(S(=O)(=O)[O-])cc1 | 0.6 | 18 mg/kg | 9 mg/kg | 1.72 |
| CC[n+]1ccc(Nc2ccc(NC(=O)/C=C/c3ccc(/C=C/C(=O)Nc4ccc(Nc5cc[n+](CC)cc5)cc4)cc3)cc2)cc1.Cc1ccc(S(=O)(=O)[O-])cc1.Cc1ccc(S(=O)(=O)[O-])cc1 | -0.05 | 32 mg/kg | 9 mg/kg | 1.88 |
| CC[n+]1cccc2ccc(NC(=O)c3ccc(-c4ccc(-c5ccc(-c6ccc(C(=O)Nc7ccc8ccc[n+](CC)c8c7)cc6)cc5)cc4)cc3)cc21.Cc1ccc(S(=O)(=O)[O-])cc1.Cc1ccc(S(=O)(=O)[O-])cc1 | 0.08 | 106 mg/kg | 20.4 mg/kg | 2.02 |
